# Where “and” joins values, the source holds several entries; their conditions need not be identical. Identical values can stand only once. Like-named read-outs stand apart in the source and are kept apart here.
# Experiments:
# [1] = test system: Plutella xylostella eggs; test: whole plant or invertebrate; type: in vivo
# Description: The ovicidal efficacy of 2-acetyl-1-tetralone was also tested against Plutella eggs.
# [2] = test system: head lice eggs; test: Head lice egg hatching with formulated compound; type: in vivo; conditions: 20 mM formulation, 10 minutes exposure, n=10 eggs
# Description: Gravid female lice were permitted to lay eggs. The eggs were counted, inspected under a light microscope and all eggs that appeared undamaged were allocated to one of two treatment groups. One group was exposed to 5′-dimethyl-2,2′-dipyridyl in a formulation, while the second group was exposed to the formulation only. The protocol was as follows:
# Treatments: 5'-dimethyl-2,2'dipyridyl (20mM) n=10
# Vehicle control only n=10
# Exposure time: 10 minutes
# Wash time: 1 minute @˜37° C.
# Incubation: All eggs were placed at 31° C. in a humid incubator and monitored for signs of development specifically of the eye and subsequent hatching, see Table 21.
# [3] = test system: Lice (L) and Plutella (P) eggs; test: whole plant or invertebrate; conditions: read-out: Ovicidal activity %
# [4] = test system: lice eggs; test: whole plant or invertebrate; type: in vivo; conditions: for Activity class 0 = inactive 1 = low 2 = med 3 = high: listed as of 10 mM; for inhibition at 10000 µM: Pediculus humanus, read-out: Ovicidal activity %; for H (number of eggs successfully hatched) / Ph (number of eggs partly hatched): per replicate, concentration not given
# [5] = test system: Lice (L) and Plutella (P) eggs; conditions: Lice (L) and Plutella (P)
# [6] = test system: Helicoverpa armigera eggs; test: Egg hatching of Helicoverpa armigera; conditions: for Number hatched / Number unhatched / % Inhibition: Table 13; for % Inhibition: relative to the control (100% MeOH)
# Description: A range of concentrations were made up in water and the eggs placed in the solutions for approximately 2-10 seconds. The eggs which had been laid on cloth were then blotted dry and placed in an incubator at 26° C. for 3-4 days until hatch. Hatch rates were then assessed compared to a water only treated control (FIG. 5).
# The compound was dissolved in 100% diethoxyglycol and diluted to a final concentration of 1% in water.
# Several hundred Helicoverpa armigera eggs (Tatura×Toowoomba strains) were collected, that had been laid on fine mesh cloth over a 24 hour period.
# Batches of Helicoverpa eggs were exposed to a specific inhibitor solution for between 2-10 seconds the excess solution drained by blotting with dry tissue paper. The egg masses were then placed in a humid box at 25 degrees until egg hatch. Control eggs were exposed to absolute methanol as described above. At day 6 post laying the eggs were assessed from the different treatments and the percentage of egg hatch determined relative to the control as shown in Table 12.
# Batches of Helicoverpa eggs were then exposed to a specific inhibitor solution for between 2-10 seconds the excess solution drained by blotting with dry tissue paper. The egg masses were then placed in a humid box at 25° C. until egg hatch. Control eggs were exposed to absolute methanol as described above. At day 6 post laying the eggs were assessed from the different treatments and the percentage of egg hatch determined relative to the control as shown in Table 13.
# [7] = Plutella xylostella, Plutella (P), 10 mM, read-out: Ovicidal activity %
# [8] = Plutella (P), listed as of 10 mM
# [9] = Table 14, 10 mM, dipped approximately 2 seconds, eggs on fine cloth
# [10] = Plutella (P), listed as of 1 mM
# [11] = Table 17, eggs laid on cloth, 1 mM in 1% diethoxyglycol
# [12] = Plutella xylostella, read-out: Ovicidal activity %
# [13] = Table 10, eggs laid on cloth, 1 mM
# [14] = Table 10, eggs laid on cloth, 10 mM
# [15] = Table 11, eggs laid on parafilm, 1 mM
# [16] = Table 11, eggs laid on parafilm, 10 mM
smiles,measurement,setting,value
"CC(C)(C)c1ccc(C(=O)CC(=O)c2ccc(C(C)(C)C)cc2)cc1 [1,3-Bis-(4-tert-butyl-phenyl)-propane-1,3-dione]",inhibition at 10000 µM,[1]; [7],0%
same,Logit calc pLD50,[1]; in vivo,0.7
same,Pref pLD50,[1]; in vivo,<2
CCOC(=O)CNC(C)=O [Ethyl-acetaimidoacetate],Ovicidal activity %,"[1]; Plutella (P), 10 mM",0.00%
same,Activity class 0 = inactive 1 = low 2 = med 3 = high,[1]; [8],0 (A pLD50 value less than 2 is considered inactive (Class 0))
Cc1ccc(-c2ccc(C)cn2)nc1 [Ha44],Stage of development: number of eggs with eye development,[2]; Day 1,1 eye development
same,Stage of development: number of eggs with no eye dev.,[2]; Day 1,9 no eye dev.
same,Stage of development: number of eggs hatched,[2]; Day 4,1 hatched
same,Stage of development: number of eggs with eye development,[2]; Day 4,1 eye development
same,Stage of development: number of eggs with no eye dev.,[2]; Day 4,8 no eye dev.
same,Stage of development: number of eggs with eye development,[2]; Day 5,1 eye development
same,Stage of development: number of eggs with no eye dev.,[2]; Day 5,8 no eye dev.
same,Stage of development: number of eggs with eye development,[2]; Day 6,1 eye development
same,Stage of development: number of eggs with no eye dev.,[2]; Day 6,8 no eye dev.
same,Stage of development: number of eggs with eye development,[2]; Day 7,1 eye development
same,Stage of development: number of eggs with no eye dev.,[2]; Day 7,8 no eye dev.
same,Stage of development: number of eggs with eye development,[2]; Day 12,1 eye development
same,Stage of development: number of eggs with no eye dev.,[2]; Day 12,8 no eye dev.
CCCC(N)CO [D-L-2-Amino-1-pentanol],Ovicidal activity %,"[1]; Plutella (P), 10 mM",0.00%
same,Activity class 0 = inactive 1 = low 2 = med 3 = high,[1]; [8],0 (A pLD50 value less than 2 is considered inactive (Class 0))
same,Logit calc pLD50,[1]; in vivo,0.7
same,Pref pLD50,[1]; in vivo,<2
CC(=O)CC(=O)c1ccccc1 [Benzoylacetone],inhibition at 1000 µM,"[1]; Plutella xylostella, Plutella (P), 1 mM, read-out: Ovicidal activity %",0%
same,inhibition at 10000 µM,[1]; [7],90%
c1ccc(-c2ccc3ccccc3n2)nc1 [2-(2-pyridinyl)quinoline],effect on egg hatching of Plutella xylostella (words),[1]; 10 mM,able to inhibit egg hatching
same,inhibition at 10000 µM,[1]; [7],100%
same,inhibition at 10000 µM,"[1]; Plutella xylostella, Table 14, 10 mM, relative to control (100% ETOH), read-out: % Inhibition",96%
same,Number hatched,[1]; [9],2
same,Number unhatched,[1]; [9],56
same,Logit calc pLD50,[1]; in vivo,3.3
same,Pref pLD50,[1]; in vivo,>2
"c1ccc(Nc2ccccn2)nc1 [2,2-dipyridylamine]",Ovicidal activity %,"[1]; Plutella (P), 1 mM",0.00%
same,Ovicidal activity %,"[1]; Plutella (P), 10 mM",100%
same,Activity class 0 = inactive 1 = low 2 = med 3 = high,[1]; [10],0 (A pLD50 value less than 2 is considered inactive (Class 0))
same,Activity class 0 = inactive 1 = low 2 = med 3 = high,[1]; [8],1 (a pLD50 value between 2 and 3 is considered weakly active (Class 1))
c1ccc(-c2cc(N3CCOCC3)c3ccccc3n2)nc1 [4-Morpholin-4-yl-2-pyridin-2-yl-quinoline],inhibition at 10000 µM,[3],0%
"c1ccc(-c2cccc(-c3ccccn3)n2)nc1 [2,2′,6,2″-terpyridine]",inhibition of Plutella egg hatching,"[1]; 1 mM, 1% diethoxyglycol",complete inhibition
same,Ovicidal activity %,"[1]; Plutella (P), 1 mM",100%
same,Activity class 0 = inactive 1 = low 2 = med 3 = high,[1]; [10],3 (a pLD50 greater than 4 is considered strongly active (Class 3))
same,Number hatched,[1]; [11],0
same,Number unhatched,[1]; [11],46
same,% Inhibition,"[1]; Table 17, 1 mM, relative to control (1% diethoxyglycol)",100%
same,Ovicidal activity %,"[4]; Lice (L), 10 mM",0.00%
same,Activity class 0 = inactive 1 = low 2 = med 3 = high,[4]; Lice (L),0 (A pLD50 value less than 2 is considered inactive (Class 0))
"O=C(CC(=O)c1cc(Cl)ccc1O)c1ccccc1 [1-(5-Chloro-2-hydroxy-phenyl)-3-phenyl-propane-1,3-dione]",inhibition at 10000 µM,[3],0%
"O=C(CC(=O)c1ccc(Cl)cc1)c1ccccc1 [1-(4-Chloro-phenyl)-3-phenyl-propane-1,3-dione]",inhibition at 10000 µM,"[4]; Lice (L), 10 mM",0%
"O=C(CC(=O)c1cccnc1)c1cccnc1 [1,3-dipyridin-3-yl-propane-1,3-dione]",inhibition at 10000 µM,[1]; [7],0%
same,Logit calc pLD50,[1]; in vivo,0.7
same,Pref pLD50,[1]; in vivo,<2
NCC(O)c1ccccc1 (centres unmarked) [2-Amino-1-phenyl ethanol],Ovicidal activity %,[1]; in vivo,0.00%
"c1ccc(-c2ccccn2)nc1 [2,2′-dipyridyl]",Ovicidal activity %,[5]; 10 mM,100.00%
same,Activity class 0 = inactive 1 = low 2 = med 3 = high,[5]; listed as of 10 mM,1 (a pLD50 value between 2 and 3 is considered weakly active (Class 1))
same,lice egg hatching,[4]; all time points examined (24-120 hr post egg laying),completely inhibited
same,H (number of eggs successfully hatched),[4]; treated 24 hr post egg laying,0
same,Ph (number of eggs partly hatched),[4]; treated 24 hr post egg laying,0
same,H (number of eggs successfully hatched),[4]; treated 48 hr post egg laying,0
same,Ph (number of eggs partly hatched),[4]; treated 48 hr post egg laying,0
same,H (number of eggs successfully hatched),[4]; treated 72 hr post egg laying,0
same,Ph (number of eggs partly hatched),[4]; treated 72 hr post egg laying,0
same,H (number of eggs successfully hatched),[4]; treated 96 hr post egg laying,1 and 0 (2×)
same,Ph (number of eggs partly hatched),[4]; treated 96 hr post egg laying,0
same,H (number of eggs successfully hatched),[4]; treated 120 hr post egg laying,0
same,Ph (number of eggs partly hatched),[4]; treated 120 hr post egg laying,0
O=C(CC(=O)c1ccccc1)c1ccccc1 [Dibenzoyl methane],inhibition at 10000 µM,[1]; [12],90%
"Cc1ccnc(-c2cc(C)ccn2)c1 [4,4′-dimethyl-2,2′-dipyridyl]",effect on egg hatching of Plutella xylostella (words),[1]; 10 and 1 mM,significantly inhibit egg hatching
same,Ovicidal activity %,"[1]; Plutella (P), 0.1 mM",65.00%
same,Ovicidal activity %,"[1]; Plutella (P), 1 mM",100.00%
same,Ovicidal activity %,"[1]; Plutella (P), 10 mM",100.00%
same,Activity class 0 = inactive 1 = low 2 = med 3 = high,[1]; [10],3 (a pLD50 greater than 4 is considered strongly active (Class 3))
same,Number hatched,[1]; [13],0
same,Number unhatched,[1]; [13],30
same,% Inhibition,"[1]; Table 10, eggs laid on cloth, 1 mM, relative to controls",100%
same,Number hatched,[1]; [14],0
same,Number unhatched,[1]; [14],36
same,% Inhibition,"[1]; Table 10, eggs laid on cloth, 10 mM, relative to controls",100%
same,Number hatched,[1]; [15],10
same,Number unhatched,[1]; [15],107
same,% Inhibition,"[1]; Table 11, eggs laid on parafilm, 1 mM, relative to controls",91%
same,Number hatched,[1]; [16],0
same,Number unhatched,[1]; [16],139
same,% Inhibition,"[1]; Table 11, eggs laid on parafilm, 10 mM, relative to controls",100%
same,effect on egg hatching of Helicoverpa armigera (words),[6]; 1 mM,significant inhibition of egg hatching
same,effect on egg hatching of Helicoverpa armigera (words),[6]; 10 mM,significant inhibition of egg hatching
same,Number hatched,[6]; 1 mM,23
same,Number unhatched,[6]; 1 mM,29
same,% Inhibition,[6]; 1 mM,66%
same,Number hatched,[6]; 10 mM,8
same,Number unhatched,[6]; 10 mM,43
same,% Inhibition,[6]; 10 mM,84%
"O=C(CC(=O)C(F)(F)F)c1ccccc1 [4,4,4-Trifluoro-1-phenyl-butane-1,3-dione]",inhibition at 10000 µM,[3],0%
"Cc1nc(-c2nc(C)c(C)[nH]2)[nH]c1C [2,2′-Bis(4,5-dimethylimidazole)]",Ovicidal activity %,"[4]; Lice (L), 10 mM",0.00%
same,Activity class 0 = inactive 1 = low 2 = med 3 = high,[4]; Lice (L),0 (A pLD50 value less than 2 is considered inactive (Class 0))
Cc1ccccn1 [2-Picoline],Activity class 0 = inactive 1 = low 2 = med 3 = high,[4]; Lice (L),0 (A pLD50 value less than 2 is considered inactive (Class 0))
same,inhibition at 10000 µM,"[4]; Lice (L), 10 mM",0%
"c1ccc2nc(-c3ccc4ccccc4n3)ccc2c1 [2,2′-biquinoline]",inhibition at 10000 µM,[3],0%
"Cc1cc(C)cc(C(=O)CC(=O)c2cc(C)cc(C)c2)c1 [1,3-Bis-(3,5-dimethyl-phenyl)-propane-1,3-dione]",inhibition at 10000 µM,[1]; [7],0%
same,Logit calc pLD50,[1]; in vivo,0.7
same,Pref pLD50,[1]; in vivo,<2
"COC(=O)c1ccc(-c2ccc(C(=O)OC)cn2)nc1 [2,2′ Bipyridinyl-5,5′-dicarboxylic acid dimethyl ester]",Activity class 0 = inactive 1 = low 2 = med 3 = high,[4]; Lice (L),0 (A pLD50 value less than 2 is considered inactive (Class 0))
same,inhibition at 10000 µM,"[4]; Lice (L), 10 mM",0%
CC(=O)NO [Acetohydroxamic acid],inhibition at 10000 µM,[1]; [7],0%
same,Logit calc pLD50,[1]; in vivo,0.7
same,Pref pLD50,[1]; in vivo,<2
COC(=O)CN [Glycine methyl ester],inhibition at 10000 µM,[1]; [7],0%
same,Logit calc pLD50,[1]; in vivo,0.7
same,Pref pLD50,[1]; in vivo,<2
c1ccc(Cc2ccccn2)cc1 [2-benzyl-pyridine],inhibition at 10000 µM,[3],0%
CC(=O)C1CCCCC1=O (centres unmarked) [2-Acetylcyclohexanone],inhibition at 10000 µM,[1]; [7],0%
same,Logit calc pLD50,[1]; in vivo,0.7
same,Pref pLD50,[1]; in vivo,<2
N[C@@H]1CCCC[C@H]1O (relative stereo) [Trans-2-aminocyclohexanol],inhibition at 10000 µM,[1]; [12],0%
"c1cnc2ccc3ncccc3c2c1 [4,7-phenanthroline]",inhibition at 10000 µM,[3],0%
c1ccc(CNCc2ccccn2)nc1 [Di(2-picolyl) amine],Activity class 0 = inactive 1 = low 2 = med 3 = high,[4]; Lice (L),0 (A pLD50 value less than 2 is considered inactive (Class 0))
same,inhibition at 10000 µM,[4],0%
O=C(NO)c1ccccc1 [Benzohydroxaminic acid],Ovicidal activity %,"[1]; Plutella (P), 10 mM",0.00%
same,Activity class 0 = inactive 1 = low 2 = med 3 = high,[1]; [8],0 (A pLD50 value less than 2 is considered inactive (Class 0))
"COc1ccc(C(=O)CC(=O)c2ccc(OC)cc2)cc1 [1,3-Bis-(4-methoxy-phenyl)-propane-1,3-dione]",inhibition at 10000 µM,[1]; [7],0%
same,Logit calc pLD50,[1]; in vivo,0.7
same,Pref pLD50,[1]; in vivo,<2
